From patent EP0970121B1, “PEPTIDE FRAGMENTS OF MYELIN BASIC PROTEIN, THEIR PHARMACEUTICAL COMPOSITIONS AND THEIR USE IN TREATING MULTIPLE SCLEROSIS” (The Governors of the University of Alberta, priority 1997, dated 1998)
Entries after “also recorded” stand apart in the source; their conditions may differ. Where no end group is shown, it is not given here.

What was measured:
[1] = test system: anti-MBP purified from CSF of MS patients; assay: In vitro neutralization of purified anti-MBP (liquid phase assay, then solid phase radioimmunoassay); format: binding, human; design: key to REACTIVITY WITH ANTI-MBP: + +: complete neutralization; +: partial neutralization; -: insignificant reactivity; conditions: for REACTIVITY WITH ANTI-MBP: purified anti-MBP, peptides 0-10.000 ng, h-MBP 0-1000 ng, 1.5 hours incubation; for neutralization of purified anti-MBP: pooled anti-MBP from 10 different MS patients, peptides up to 10.000 ng, MBP and negative antigen controls up to 1000 ng
Description: (§1) Constant amounts of anti-MBP (15 radioactivity binding units corresponding to 100 for scale expansion purposes = %0) were incubated with increasing amounts of h-MBP (0-1000 ng) or individual peptides of MBP (0-10.000 ng) in a liquid phase assay and after 1.5 hours incubation, free anti-MBP levels were determined in all mixtures. Anti-MBP isolated from 7 individual MS patients or pooled anti-MBP from 10 different MS patients were used in neutralization experiments. Calf thymus histone and human serum albumin were used as negative antigen controls (range: 10-1000 ng). One monoclonal antibody (MAb) to peptide MBP64-78 and a polyclonal rabbit antiserum to peptide MBP1-8 were used as positive antibody controls (Groome, N., Harland, J., and Dawkes, A., Neurochem Int 7:309-317, 1985, Barry, R., Payton. M., and Groome, N., Neurochem Int 2:291-300. 1991). Another mouse monoclonal antibody to epitope 45-50 was used as negative antibody control.
Anti-MBP levels were determined by a solid phase radioimmunoassay with human MBP (Warren, K.G. and Catz, I., Ann Neurol 209:20-25, 1986; Warren, K.G. and Catz, I., Ann Neurol 21:183-187, 1987; and Warren, K.G. and Catz, I., J Neurol Sci 91:143-151. 1989). Free anti-MBP levels were measured in all fractions from affinity chromatography and in all neutralization mixtures. All individual samples were run in quadruplicate using the same iodinated material in order to minimize between-assay variability.

MS patients = assay: Monitoring for adverse effects after peptide administration; format: in vivo, human
Description: After determining that peptide MBP75-95 neutralized F anti-MBP in vivo for periods in excess of 7 days, it was elected to repeatedly inoculate 10 mg MBP75-95 into the spinal fluid at weekly intervals for 10 weeks. This experiment was conducted, in 3 different patients with chronic progressive MS who have not participated in the single peptide injection project and volunteered for this study. F and B anti-MBP were determined 1-2 weeks prior to the first inoculation, prior to and 30 minutes following each of the 10 injections and again 1 month after the last injection. Cell counts, total protein, glucose, IgG and albumin levels were determined in all CSFs obtained before each of the 10 injections. Prior to the first and after the last injection blood was obtained and analyzed for electrolytes, creatinine, cardiac and liver enzymes and hematology panel.
Blood was obtained before injection as well as 16 and 30 days later and analyzed for electrolytes, creatinine, cardiac and liver enzymes and hematology panel. Spinal fluid was monitored for cell counts, total protein, glucose, IgG and albumin levels.

[2] = test system: polyclonal rabbit antiserum to peptide MBP1-8; assay: Positive antibody control of the neutralization assay; format: binding
Description: as §1

CSF anti-MBP = assay: Intrathecal peptide administration, CSF anti-MBP by radioimmunoassay; format: in vivo, human
Description: Anti-MBP levels were determined by a solid phase radioimmunoassay with human MBP coated on Immulon microtiter wells. Immulon microtiter wells were coated with 100 µl of 10 µg/ml of MBP (1 µg/well) and incubated overnight at 37°C. After quenching with bovine serum albumin (BSA) and three water washes, the wells were stored at room temperature. Samples of 100 µl of CSF or tissue extracts diluted to 0.010 gm of IgG/l (with 0.01 M Barbitol Buffered Saline (BBS) pH 6.9-7.1. 0.5% BSA and 0.05% Tween 20) were incubated in MBP-coated wells for 1-2 hours at room temperature. After 5 buffer washes (with 0.01 M BBS, 0.5 BSA and 0.05% Tween 20), wells were incubated with goat anti-rabbit IgG-Fc specific (in 0.01 M BBS, 0.05% Tween 20, 0.5% BSA) for 1 hour at room temperature and then rinsed as above. Finally, ^125I-protein A (or ^125 I-protein G) was added and incubated for 1 hour at room temperature. When ^125I-protein G was used as a tracer, ovalbumin replaced BSA in assay buffer and for quenching. After three final water washes wells were individually counted. Results are expressed in radioactivity defined as: (counts of sample - counts of blank) ÷ (counts of total radioactivity - counts of blank). All samples are run in 10 replicate and counting time is 10 minutes in order to collect > 10,000 counts for any positive sample.
Prior to being assayed all CSF and/or tissue samples were diluted to a final IgG concentration of 0.010 g/l. F anti-MBP was detected directly in CSF or tissue extract while B levels of antibody were determined following acid hydrolysis of immune complexes with glycine HCl buffer pH 2.2. Non-specific binding was performed for each sample in uncoated wells. For epitope localization, synthetic peptides were firstly reacted with purified antibody in a liquid phase competitive assay and then anti-MBP was determined by radioimmunoassay in all resulting supernatants. Results of the combined competitive binding assay and radioimmunoassay were expressed as percent inhibition of synthetic peptide defined as 100 - radioactivity units. Samples were done in 10 replicates and counted for 10 minutes each in a LKB1275 Minigamma counter. […]
A Phase 1 experiment to determine the effect of synthetic peptide MBP75-95 on F and B titers of CSF anti-MBP was conducted. […] 14 patients volunteered for this study: eight patients were selected on the basis of their initial titre of F CSF anti-MBP (above 8 radioactivity units) (Table 2) to receive one intrathecal injection of either peptide MBP75-95 which bound anti-MBP in vitro or a non-binding control peptide MBP35-58 (Warren and Catz, 1993b). […] Cell counts, total protein, glucose, IgG and albumin levels were determined in all CSF samples obtained. F and B anti-MBP levels were determined by radioimmunoassay, as described above. […]

[3] = test system: F and B anti-MBP purified by affinity chromatography from CSF and MS brain tissue; assay: Competitive inhibition assay with decapeptides (MBP epitope localization); format: binding, human; conditions: purified F and B anti-MBP from MS brain tissue (Fig. 10); percent inhibition = 100 - radioactivity units
Description: Prior to being assayed all CSF and/or tissue samples were diluted to a final IgG concentration of 0.010 g/l. F anti-MBP was detected directly in CSF or tissue extract while B levels of antibody were determined following acid hydrolysis of immune complexes with glycine HCl buffer pH 2.2. Non-specific binding was performed for each sample in uncoated wells. For epitope localization, synthetic peptides were firstly reacted with purified antibody in a liquid phase competitive assay and then anti-MBP was determined by radioimmunoassay in all resulting supernatants. Results of the combined competitive binding assay and radioimmunoassay were expressed as percent inhibition of synthetic peptide defined as 100 - radioactivity units. Samples were done in 10 replicates and counted for 10 minutes each in a LKB1275 Minigamma counter. A pool of tissue-purified anti-MBP was used at 5 pre-established dilutions as positive controls. Pooled CSF from patients with non-neurological diseases was used as negative controls. Within assay reproducibility was between 3 and 5% and between assay variation was less than 7 %.
The peptide(s) producing maximum inhibition were considered to be most highly associated with the antibody binding site.

[4] = Solubility in normal saline

18-32: synthetic peptide of human MBP sequence 18-32 (NSETNRGESEKKRNL; UniProt P02686 18-32, looked up, fragment)
REACTIVITY WITH ANTI-MBP [1]: -

26 - 40: synthetic peptide of human MBP sequence 26-40 (SEKKRNLGELSRTTS; UniProt P02686 26-40, looked up, fragment)
REACTIVITY WITH ANTI-MBP [1]: -

117 - 129: synthetic peptide of human MBP sequence 117-129 (LQTIQEDSAATSE; UniProt P02686 117-129, looked up, fragment)
REACTIVITY WITH ANTI-MBP [1]: -

141 - 155: synthetic peptide of human MBP sequence 141-155 (SQRHGSKYLATASTM; UniProt P02686 141-155, looked up, fragment)
REACTIVITY WITH ANTI-MBP [1]: -

Cy 4 - 18: synthetic peptide of human MBP sequence 4-18 with cysteine (HAGKRELNAEKASTN; also: added cysteine, end not given here; UniProt P02686 4-18, looked up, fragment)
REACTIVITY WITH ANTI-MBP [1]: -

Cy 11 - 24: synthetic peptide of human MBP sequence 11-24 with cysteine (NAEKASTNSETNRG; also: added cysteine, end not given here; UniProt P02686 11-24, looked up, fragment)
REACTIVITY WITH ANTI-MBP [1]: -

Cy 51 - 64 Gly: synthetic peptide of human MBP sequence 51-64 with cysteine and Gly (ANQNNGTSSQDTAV; also: added cysteine and glycine, ends not given here; UniProt P02686 51-64, looked up, fragment)
REACTIVITY WITH ANTI-MBP [1]: +

Cy 127 - 140: synthetic peptide of human MBP sequence 127-140 with cysteine (TSESLDVMASQKRP; also: added cysteine, end not given here; UniProt P02686 127-140, looked up, fragment)
REACTIVITY WITH ANTI-MBP [1]: -

Cy 136 - 149: synthetic peptide of human MBP sequence 136-149 with cysteine (SQKRPSQRHGSKYL; also: added cysteine, end not given here; UniProt P02686 136-149, looked up, fragment)
REACTIVITY WITH ANTI-MBP [1]: -

HHPARTAHYGSLPQK [MBP61-75]
neutralization of purified anti-MBP [1]: partially neutralized | REACTIVITY WITH ANTI-MBP [1]: +

KSHGRTQDENPVVHFFKNIVT [MBP75-95]
adverse effects (MS patients; 500 mg intravenously over 30 minutes, patient 8M41): No adverse effects were observed | adverse effects / systemic complications (MS patients; repeated intrathecal inoculations, electrolytes, cardiac-liver-kidney function, hematology): no adverse complications have occurred

MBP1-8: synthetic peptide of human MBP sequence 1-8 with cysteine (MGNHAGKR; also: added cysteine, end not given here; UniProt P02686 1-8, looked up, fragment)
REACTIVITY WITH ANTI-MBP [1]: - | inhibition of MAb to peptide MBP 1-8 [2]: inhibited

MBP35-58: non-binding, control synthetic peptide of human MBP residues 35-58 (LSRTTSEDNEVFGEADANQNNGTS; also: added cysteine, end not given here; UniProt P02686 35-58, looked up, fragment)
REACTIVITY WITH ANTI-MBP [1]: - | F and B levels of CSF anti-MBP (CSF anti-MBP; one intrathecal injection of 1, 2.5, 5 and 10 mg, 24 hour experiment): remained unaffected; also recorded: remained unchanged | F anti-MBP in CSF (CSF anti-MBP; one intrathecal injection, 5 mg): remained elevated at baseline level | F anti-MBP in CSF (CSF anti-MBP; one intrathecal injection, 10 mg): persistently elevated | CSF F anti-MBP over increasing doses (CSF anti-MBP; one intrathecal injection, increasing amounts 1, 2.5, 5 and 10 mg): did not react

MBP51 -60: decapeptide of human MBP residues 51-60, negative control (ANQNNGTSSQ; UniProt P02686 51-60, looked up, fragment)
percent inhibition of both F and B anti-MBP [3]: 0-10%

MBP 111 -120: decapeptide of human MBP residues 111-120, negative control (PSESDELQTI; UniProt P02686 111-120, looked up, fragment)
percent inhibition of both F and B anti-MBP [3]: 0-10%

Thr Gln Asp Glu Asn Pro Val Val His Phe Phe Lys Asn Ile Val Thr Pro Arg (TQDENPVVHFFKNIVTPR; printed: Thr Gln Asp Glu Asn Pro Val Val His Phe Phe Lys Asn Ile Val Thr Pro Arg) [MBP80-97]
neutralization of anti-MBP purified from 7 individual MS patients ([1]; anti-MBP of individual patients): completely neutralized | neutralization of purified anti-MBP [1]: completely neutralized | REACTIVITY WITH ANTI-MBP [1]: + + | times less effective on a molar basis than intact MBP at causing inhibition ([1]; relative to intact MBP): approximately 100 times

VVHFFKNIVT [MBP86-95, Val Val His Phe Phe Lys Asn Ile Val Thr]
solubility [4]: very low solubility
